Laboratory results as given in patent US9339503B2, “Tetrahydro-quinazolinone derivatives as TANK and PARP inhibitors” (MERCK PATENT GMBH, priority 2012, dated 2016).

Columns and labels:
[1] = biological target: T1, GST-tagged Tnks-1 (1023-1327 aa) (Homo sapiens, UniProt O95271); experiment: TNKS 1 activity ELISA (autoparsylation assay); type: biochemical; conditions: read-out: IC50 tankyrase 1 (ELISA assay)
T1 construct: GST-tagged Tnks-1 (1023-1327 aa, prepared in-house); made in house
Protocol: (§1) Biochemical Activity Testing of TNKS 1 and 2: Activity ELISA (Autoparsylation Assay)
(§2) For analysis of autoparsylation activity of TNKS 1 and 2 an activity ELISA was performed: In the first step GST tagged TNKS was captured on a Glutathione coated plate. Then the activity assay with biotinylated NAD was performed in the absence/presence of the compounds. During the enzymatic reaction GST tagged TNKS transferred biotinylated ADP-ribose to itself from biotinylated NAD as co-substrate. For the detection streptavidin-HRP conjugate was added that bound to the biotinylated TNKS and was thereby captured to the plates. The amount of biotinylated resp autoparsylated TNKS was detected with a luminescence substrate for HRP. The level of the luminescence signal correlated directly with the amount of autoparsylated TNKS and therefore with activity of TNKS.
(§3) The activity ELISA was performed in 384 well Glutathione coated microtiter plates (Express capture Glutathione coated plate, Biocat, Heidelberg, Germany). The plates were pre-equilibrated with PBS. Then the plates were incubated with 50 μl 20 ng/well GST-tagged Tnks-1 (1023-1327 aa, prepared in-house), respectively GST-tagged Tnks-2 (873-1166 aa, prepared in-house) in assay buffer (50 mM HEPES, 4 mM Mg-chloride, 0.05% Pluronic F-68, 2 mM DTT, pH 7.7) overnight at 4° C. The plates were washed 3 times with PBS-Tween-20. The wells were blocked by incubation at room temperature for 20 minutes with 50 μl blocking buffer (PBS, 0.05% Tween-20, 0.5% BSA). Afterwards the plates were washed 3 times with PBS-Tween-20. The enzymatic reaction was performed in 50 μl reaction solution (50 mM HEPES, 4 mM Mg-chloride, 0.05% Pluronic F-68, 1.4 mM DTT, 0.5% DMSO, pH 7.7) with 10 μM bio-NAD (Biolog, Life science Inst., Bremen, Germany) as co-substrate in the absence or presence of the test compound (10 dilution concentrations) for 1 hour at 30° C. The reaction was stopped by 3 times washing with PBS-Tween-20. For the detection 50 μl of 20 ng/μl Streptavidin, HRP conjugate (MoBiTec, Göttingen, Germany) in PBS/0.05% Tween-20/0.01% BSA were added and the plates were incubated for 30 minutes at room temperature. After three times washing with PBS-Tween-20 50 μl of SuperSignal ELISA Femto Maximum sensitivity substrate solution (ThermoFisherScientific (Pierce), Bonn, Germany) were added. Following a 1 minute incubation at room temperature luminescence signals were measured with an Envision multimode reader (Perkin Elmer LAS Germany GmbH) at 700 nm. The full value used was the inhibitor-free reaction. The pharmacological zero value used was XAV-939 (Tocris) in a final concentration of 5 μM. The inhibitory values (IC50) were determined using either the program Symyx Assay Explorer® or Condosseo® from GeneData.

[2] = biological target: T2, GST-tagged Tankyrase-1 (1023-1327 aa) (Homo sapiens, UniProt O95271); experiment: Tankyrase 1 autoparsylation assay (HTRF enzyme assay); type: biochemical
T2 construct: GST-tagged Tankyrase-1 (1023-1327 aa)
T2 sequence (O95271 1023-1327): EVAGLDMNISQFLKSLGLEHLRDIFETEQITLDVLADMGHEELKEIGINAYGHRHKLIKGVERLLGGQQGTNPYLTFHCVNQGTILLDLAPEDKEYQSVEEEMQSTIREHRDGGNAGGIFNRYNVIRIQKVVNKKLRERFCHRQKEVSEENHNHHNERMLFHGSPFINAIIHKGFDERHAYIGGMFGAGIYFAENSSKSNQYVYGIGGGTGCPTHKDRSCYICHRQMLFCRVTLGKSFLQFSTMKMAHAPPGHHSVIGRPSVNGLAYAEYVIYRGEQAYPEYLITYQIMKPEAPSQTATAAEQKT
Protocol: (§4) The autoparsylation assay was run in two steps: the enzymatic reaction in which GST-tagged Tankyrase-1, resp Tankyrase-2 transferred biotinylated ADP-ribose to itself from biotinylated NAD as co-substrate and the detection reaction where a time resolved FRET between cryptate labelled anti-GST bound to the GST tag of the enzyme and Xlent® labelled-streptavidin bound the biotin-parsylation residue was analysed. The autoparsylation activity was detectable directly via the increase in HTRF signal.
(§5) The autoparsylation assay was performed as 384-well HTRF® (Cisbio, Codolet, France) assay format in Greiner low volume nb 384-well microtiter plates and was used for high throughput screen. 250 nM GST-tagged Tankyrase-1 (1023-1327 aa), respectively about 250 nM GST-tagged Tankyrase-2 (873-1166 aa) and 5 μM bio-NAD (Biolog, Life science Inst., Bremen, Germany) as co-substrate were incubated in a total volume of 5 μl (50 mM HEPES, 4 mM Mg-chloride, 0.05% Pluronic F-68, 1.4 mM DTT, 0.5% DMSO, pH 7.7) in the absence or presence of the test compound (10 dilution concentrations) for 90 min at 30° C. The reaction was stopped by the addition of 1 μl 50 mM EDTA solution. 2 μl of the detection solution (1.6 μM SA-Xlent® (Cisbio, Codolet, France), 7.4 nM Anti-GST-K® (Eu-labelled anti-GST, Cisbio, Codolet, France) in 50 mM HEPES, 800 mM KF, 0.1% BSA, 20 mM EDTA, 0.1% CHAPS, pH 7.0) were added. After 1 h incubation at room temperature the HTRF was measured with an Envision multimode reader (Perkin Elmer LAS Germany GmbH) at excitation wavelength 340 nm (laser mode) and emission wavelengths 615 nm and 665 nm. The ratio of the emission signals was determined. The full value used was the inhibitor-free reaction. The pharmacological zero value used was XAV-939 (Tocris) in a final concentration of 5 μM. The inhibitory values (IC50) were determined using either the program Symyx Assay Explorer® or Condosseo® from GeneData.

[3] = biological target: T3, GST-tagged Tnks-2 (873-1166 aa) (Homo sapiens, UniProt Q9H2K2); experiment: TNKS 2 activity ELISA (autoparsylation assay); type: biochemical; conditions: read-out: IC50 tankyrase 2 (ELISA assay)
T3 construct: GST-tagged Tnks-2 (873-1166 aa, prepared in-house); made in house
T3 sequence (Q9H2K2 873-1166): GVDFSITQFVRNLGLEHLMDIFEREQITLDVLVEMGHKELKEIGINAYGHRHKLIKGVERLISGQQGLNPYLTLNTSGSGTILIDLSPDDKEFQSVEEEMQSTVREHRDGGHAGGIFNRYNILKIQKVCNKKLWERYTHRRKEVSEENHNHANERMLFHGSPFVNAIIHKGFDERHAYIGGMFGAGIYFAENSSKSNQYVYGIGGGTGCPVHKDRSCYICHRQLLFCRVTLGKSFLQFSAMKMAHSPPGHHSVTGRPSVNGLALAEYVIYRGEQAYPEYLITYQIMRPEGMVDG
Protocol: as §1, §2, §3

[4] = biological target: T4, GST-tagged Tankyrase-2 (873-1166 aa) (Homo sapiens, UniProt Q9H2K2); experiment: Tankyrase 2 autoparsylation assay (HTRF enzyme assay); type: biochemical
T4 construct: GST-tagged Tankyrase-2 (873-1166 aa)
T4 sequence (Q9H2K2 873-1166): as above
Protocol: as §4, §5

tankyrase 1/2 = experiment: Measurement of cellular inhibition of tankyrase (Axin2 level, Luminex based assay, DLD1 cells); conditions: 24 hours, increase of Axin2 level, read-out: EC50 tankyrase 1/2 (cell assay)
Protocol: Measurement of Cellular Inhibition of Tankyrase
Since Tankyrases have been described to modulate cellular level of Axin2 (Huang et al., 2009; Nature) the increase of Axin2 level is used as read-out for determination of cellular inhibition of Tankyrases in a Luminex based assay.
Cells of the colon carcinoma cell line DLD1 are plated in 96 well plates with 1.5×10^4 cells per well. Next day, cells are treated with a serial-dilution of test compound in seven steps as triplicates with a final DMSO concentration of 0.3%. After 24 hours, cells are lysed in lysis buffer (20 mM Tris/HCl pH 8.0, 150 mM NaCl, 1% NP40, 10% Glycerol) and lysates are cleared by centrifugation through a 96 well filter plate (0.65 μm). Axin2 protein is isolated from cell lysates by incubation with a monoclonal anti-Axin2 antibody (R&D Systems #MAB6078) that is bound to fluorescent carboxybeads. Then, bound Axin2 is specifically detected with a polyclonal anti-Axin2 antibody (Cell Signaling #2151) and an appropriate PE-fluorescent secondary antibody. The amount of isolated Axin2 protein is determined in a Luminex^200 machine (Luminex Corporation) according to the manufacturer's instruction by counting 100 events per well. […] For analysis, the obtained data were normalized against the untreated solvent control and fitted for determination of the EC50 values using the Assay Explorer software (Accelrys).

T1 sequence (O95271 1023-1327): as the sequence (O95271 1023-1327) above

SMILES | IC50 [1] | IC50 [2] | IC50 [3] | IC50 [4] | EC50 (tankyrase 1/2)
O=c1[nH]c(N2CCN(c3cccc(F)c3)CC2)nc2c1CCCC2 [Compound A5, 2-[4-(3-Fluorophenyl)piperazin-1-yl]-5,6,7,8-tetrahydro-3H-quinazolin-4-one] | < 0.3 µM | 0.3 to 3 µM | < 0.3 µM | 0.3 to 3 µM | 3 to 50 µM
O=c1[nH]c(N2CCN(c3ccc(Cl)cc3)CC2)nc2c1CCCC2 [Compound A8, 2-[4-(4-Chlorophenyl)piperazin-1-yl]-5,6,7,8-tetrahydro-3H-quinazolin-4-one] | < 0.3 µM | 0.3 to 3 µM | < 0.3 µM | 0.3 to 3 µM | 3 to 50 µM
CC(C)(C)N1CCN(c2nc3c(c(=O)[nH]2)CCCC3)CC1 [Compound A13, 2-(4-tert-Butylpiperazin-1-yl)-5,6,7,8-tetrahydro-3H-quinazolin-4-one] |  | 0.3 to 3 µM |  | 0.3 to 3 µM | 3 to 50 µM
COc1ccc(N2CCN(c3nc4c(c(=O)[nH]3)CCCC4)CC2=O)cc1 [Compound A14, 2-[4-(4-Methoxyphenyl)-3-oxopiperazin-1-yl]-5,6,7,8-tetrahydro-3H-quinazolin-4-one] |  | 3 to 50 µM |  | 3 to 50 µM | 3 to 50 µM
O=C(N1CCCCC1)N1CCN(c2nc3c(c(=O)[nH]2)CCCC3)CC1 [Compound A15, 2-[4-(Piperidine-1-carbonyl)piperazin-1-yl]-5,6,7,8-tetrahydro-3H-quinazolin-4-one] |  | 3 to 50 µM |  | 3 to 50 µM | 3 to 50 µM
O=c1[nH]c(N2CCN(c3cccc(O)n3)CC2)nc2c1CCCC2 [Compound A16, 2-[4-(6-Hydroxypyridin-2-yl)piperazin-1-yl]-5,6,7,8-tetrahydro-3H-quinazolin-4-one] |  | 3 to 50 µM |  | 3 to 50 µM | 3 to 50 µM
O=C(c1ccccc1)N1CCN(c2nc3c(c(=O)[nH]2)CCCC3)CC1 [Compound A17, 2-(4-Benzoylpiperazin-1-yl)-5,6,7,8-tetrahydro-3H-quinazolin-4-one] |  | 3 to 50 µM |  | 3 to 50 µM | 
O=C(CN1CCN(c2nc3c(c(=O)[nH]2)CCCC3)CC1)Nc1ccccn1 [Compound A18, N-pyridin-2-yl-2-[4-(4-oxo-3,4,5,6,7,8-hexahydroquinazolin-2-yl)piperazin-1-yl]-acetamide] |  | 0.3 to 3 µM |  | 0.3 to 3 µM | 3 to 50 µM
O=C(N1CCOCC1)N1CCN(c2nc3c(c(=O)[nH]2)CCCC3)CC1 [Compound A20, 2-[4-(Morpholine-4-carbonyl)piperazin-1-yl]-5,6,7,8-tetrahydro-3H-quinazolin-4-one] |  | 3 to 50 µM |  | 3 to 50 µM | 3 to 50 µM
O=c1[nH]c(N2CCN(CCO)CC2)nc2c1CCCC2 [Compound A25, 2-[4-(2-hydroxyethyl)piperazin-1-yl]-5,6,7,8-tetrahydro-3H-quinazolin-4-one] |  | 3 to 50 µM |  | 3 to 50 µM | 
O=c1[nH]c(N2CCN(CCc3ccccn3)CC2)nc2c1CCCC2 [Compound A26, 2-[4-[2-(2-pyridyl)ethyl]piperazin-1-yl]-5,6,7,8-tetrahydro-3H-quinazolin-4-one] |  | 0.3 to 3 µM |  | 0.3 to 3 µM | 
O=c1[nH]c(N2CCN(c3cccnc3)CC2)nc2c1CCCC2 [Compound A32, 2-[4-(3-pyridyl)piperazin-1-yl]-5,6,7,8-tetrahydro-3H-quinazolin-4-one] |  | 0.3 to 3 µM |  | 0.3 to 3 µM | 
O=c1[nH]c(N2CCC(O)(c3ccccc3)CC2)nc2c1CCCC2 [Compound A35, 2-(4-hydroxy-4-phenyl-1-piperidyl)-5,6,7,8-tetrahydro-3H-quinazolin-4-one] |  | 0.3 to 3 µM |  | 0.3 to 3 µM | 0.3 to 3 µM
CC(C)Oc1ccccc1N1CCN(c2nc3c(c(=O)[nH]2)CCCC3)CC1 [Compound A42, 2-[4-(2-isopropoxyphenyl)piperazin-1-yl]-5,6,7,8-tetrahydro-3H-quinazolin-4-one] |  | 0.3 to 3 µM |  | 0.3 to 3 µM | 
O=c1[nH]c(N2CCN(c3ccccc3OC(F)(F)F)CC2)nc2c1CCCC2 [Compound A43, 2-[4-[2-(trifluoromethoxy)phenyl]piperazin-1-yl]-5,6,7,8-tetrahydro-3H-quinazolin-4-one] |  | 0.3 to 3 µM |  | 3 to 50 µM | 
N#CCc1ccc(N2CCN(c3nc4c(c(=O)[nH]3)CCCC4)CC2)cc1 [Compound A46, 2-[4-[4-(4-oxo-5,6,7,8-tetrahydro-3H-quinazolin-2-yl)piperazin-1-yl]phenyl] acetonitrile] |  | 0.3 to 3 µM |  | 0.3 to 3 µM | 
CCOc1ccc(N2CCN(c3nc4c(c(=O)[nH]3)CCCC4)CC2)cc1 [Compound A48, 2-[4-(4-ethoxyphenyl)piperazin-1-yl]-5,6,7,8-tetrahydro-3H-quinazolin-4-one] | < 0.3 µM | 0.3 to 3 µM | < 0.3 µM | 0.3 to 3 µM | 
O=c1[nH]c(N2CCN(c3ccc(C(F)(F)F)cc3)CC2)nc2c1CCCC2 [Compound A50, 2-[4-(4-trifluoromethylphenyl)piperazin-1-yl]-5,6,7,8-tetrahydro-3H-quinazolin-4-one] |  | 0.3 to 3 µM |  | 0.3 to 3 µM | 
COc1ccc(C2(O)CCN(c3nc4c(c(=O)[nH]3)CCCC4)CC2)cc1 [Compound A53, 2-[4-hydroxy-4-(4-methoxy-phenyl)-piperidin-1-yl]-5,6,7,8-tetrahydro-3H-quinazolin-4-one] |  | 0.3 to 3 µM |  | 0.3 to 3 µM | 0.3 to 3 µM
